Drawing on patent publication US6794402B2, “Bicyclic cyclohexylamines and their use as NMDA receptor antagonists” (Warner-Lambert Company, priority 2000, dated 2004), this text covers IC50 for 29 compounds.

What is called IC50 is the concentration that gives 50% inhibition.

For this test, the target named is T1, [3H]ifenprodil binding site, rat forebrain membranes (Rattus norvegicus, UniProt P35439+Q00960).
T1 construct: membrane fraction was prepared from frozen adult rat forebrains; tissue Zivic-Miller Laboratories, Inc; host or cells: adult rat forebrain, washed buffy coat membrane fraction
T1 sequence (Q00960 27-1482, other chains not shown): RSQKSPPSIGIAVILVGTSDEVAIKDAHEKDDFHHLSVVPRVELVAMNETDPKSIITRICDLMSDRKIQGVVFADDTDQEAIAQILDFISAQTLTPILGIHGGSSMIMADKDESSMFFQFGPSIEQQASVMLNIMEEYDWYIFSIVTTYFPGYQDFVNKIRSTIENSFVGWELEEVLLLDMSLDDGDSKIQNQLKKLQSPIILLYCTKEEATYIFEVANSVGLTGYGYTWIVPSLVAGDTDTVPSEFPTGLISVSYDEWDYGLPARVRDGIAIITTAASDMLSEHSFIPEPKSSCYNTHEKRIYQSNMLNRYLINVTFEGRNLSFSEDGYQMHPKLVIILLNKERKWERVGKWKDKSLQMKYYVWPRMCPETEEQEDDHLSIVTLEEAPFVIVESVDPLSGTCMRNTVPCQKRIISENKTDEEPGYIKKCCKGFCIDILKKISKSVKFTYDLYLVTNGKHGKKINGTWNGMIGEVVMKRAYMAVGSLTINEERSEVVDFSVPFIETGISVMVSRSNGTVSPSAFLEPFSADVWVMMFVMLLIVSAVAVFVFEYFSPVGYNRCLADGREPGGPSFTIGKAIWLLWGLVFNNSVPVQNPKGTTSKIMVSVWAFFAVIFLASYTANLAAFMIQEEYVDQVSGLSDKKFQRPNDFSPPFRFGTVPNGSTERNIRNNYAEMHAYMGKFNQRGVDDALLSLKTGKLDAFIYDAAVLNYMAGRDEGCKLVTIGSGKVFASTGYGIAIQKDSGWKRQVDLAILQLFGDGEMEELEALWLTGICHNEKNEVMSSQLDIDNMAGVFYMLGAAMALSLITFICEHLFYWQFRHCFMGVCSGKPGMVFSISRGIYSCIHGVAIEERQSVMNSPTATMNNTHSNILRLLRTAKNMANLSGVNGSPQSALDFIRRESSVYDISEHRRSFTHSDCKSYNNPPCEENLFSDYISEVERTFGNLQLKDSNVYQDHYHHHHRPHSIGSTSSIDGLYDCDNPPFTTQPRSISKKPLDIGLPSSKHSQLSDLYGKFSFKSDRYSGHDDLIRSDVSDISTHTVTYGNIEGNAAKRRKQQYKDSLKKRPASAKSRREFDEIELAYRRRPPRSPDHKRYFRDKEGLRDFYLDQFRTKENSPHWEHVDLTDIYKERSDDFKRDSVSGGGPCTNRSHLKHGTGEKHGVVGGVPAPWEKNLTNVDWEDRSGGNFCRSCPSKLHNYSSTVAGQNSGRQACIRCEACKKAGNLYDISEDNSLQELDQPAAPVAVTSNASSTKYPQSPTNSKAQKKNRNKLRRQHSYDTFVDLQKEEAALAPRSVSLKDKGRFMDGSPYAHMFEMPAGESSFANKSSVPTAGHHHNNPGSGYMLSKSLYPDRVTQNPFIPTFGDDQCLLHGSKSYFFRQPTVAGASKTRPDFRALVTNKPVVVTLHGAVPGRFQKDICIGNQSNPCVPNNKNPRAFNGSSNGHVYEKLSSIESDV
The test can be described thus: [3H]Ifenprodil binding assay. The following applies: 4 nM [3H]-ifenprodil, 2 hours at room temperature. The method, then:
All buffers and reagents used in assay incubations or to dissolve drugs were prepared using water purified through a Milli-Q reverse osmosis system (Millipore Corp, Bedford, Mass.) and treated with UV emissions. Prior to use in the assays, buffers were further filtered through a sterile Corning filtration unit (Corning Glass Works, Corning, N.Y.) containing a 0.2-micron filter. Buffer used to rinse the membranes on the assay filters was prepared with purified water, but was not refiltered and was stored no longer than 5 days. Stock solutions of the drugs (usually 10 mM) were dissolved in 20 mM HEPES-KOH buffer pH 7.4 (assay buffer) with the addition of 1 to 5 μL of glacial AcOH, if needed to keep them in solution. For eliprodil the stock solution was buffered with the addition of 10% DMSO. All subsequent dilutions from stock were made in buffer.
An extensively washed buffy coat membrane fraction was prepared from frozen adult rat forebrains (Zivic-Miller Laboratories, Inc., Zelienople, Pa.) as described previously (Coughenour L. L., Cordon, J. J., J. Pharmacol. Exp. Ther., 1997;280:584-592) and stored at −80° C. On the day of the assay, pellets were resuspended in 35 mL of assay buffer at pH 7.4 using a Polytron setting 6. After incubation at 37° C. for 30 minutes in a shaking water bath, the homogenate was centrifuged 40,000×g for 10 minutes at 4° C. The pellets were resuspended in fresh buffer and centrifuged 3 more times before final suspension for use in the assay.
[^3H]Ifenprodil Binding. Triplicate incubations were carried out in a volume of 0.5 mL in 1.3 mL polypropylene tubes (Marsh Biomedical Products Inc., Rochester, N.Y.) for 2 hours at room temperature. Incubations contained test agents, membranes (100-200 μg protein) and 4 nM[^3H]-ifenprodil in 20 mM HEPES-KOH buffer, pH 7.4 (assay buffer). Assays were started by addition of the membranes. Bound radioligand was separated by filtration under reduced pressure using a Tomtec Mach II, 96-well cell harvester (Tomtec Inc., Orange, Colo.). Filtration was through Whatman GF/B glass fiber filters (Whatman Ltd, Maidstone, England), which had been soaked for at least 15 minutes in 0.3% polyethylenimine and allowed to air dry. The filters were rinsed with 3 mL of ice cold assay buffer within 6 seconds. Air was allowed to pass through the filters for an additional 10 seconds to remove residual moisture. The filter mat was supported on a cold (−20° C.) teflon support, and filters from individual wells were separated and placed in Mini Poly-Q vials (Beckman Instruments Inc., Fullerton, Calif.) and filled with 4 mL of scintillation cocktail (Beckman Ready Protein^+). Radioactivity retained on the filter was determined by liquid scintillation spectrophotometry. Nonspecific binding was defined as the binding in the presence of 1 mM ifenprodil. Specific binding was 90%.
Data analysis. Binding curves were statistically analyzed for a best one or two site competition fit using GraphPad Prism software (GraphPad Software Inc., San Diego, Calif.). The normalized data was fit by nonweighted nonlinear regression to either [formula]
Control data was entered as 100%, and no parameters were constrained. Inhibition curves were compared by ANOVA with post test comparisons of the logIC50 using Dunnett's multiple comparisons post test or Student's nonpaired, two-tailed t-test (GraphPad InStat software).
Compound `O=C(NCCNC1CCC(c2ccc3[nH]c(=O)oc3c2)CC1)c1ccccc1` (mixture of isomers) [Example 42b, N-{2-[4-(2-Oxo-2,3-dihydrobenzoxazol-6-yl)cyclohexylamino]ethyl}-benzamide] returned an IC50 of 980 nM. The result for `Cc1cc(F)ccc1CCCN(C)C1CCC(c2ccc3[nH]c(=O)oc3c2)CC1` (stereo in doubt) [Example 43b, 6-(trans-{4-[Methyl(4-fluoro-2-methylphenylpropyl)amino]cyclohexyl})-3H-benzoxazol-2-one] reads 56 nM; that for `O=c1[nH]c2ccc([C@H]3CC[C@@H](NCCSc4ccccc4)CC3)cc2o1` [Example 5b, 6-[cis-4-(2-Phenylsulfanylethylamino)cyclohexyl]-3H-benzoxazol-2-one], 21 nM; that for `O=c1[nH]c2ccc([C@H]3CC[C@H](NCCCc4ccc(C(F)(F)F)cc4)CC3)cc2o1` [Example 14, 6-{trans-4-[3-(4-Trifluoromethylphenyl)propylamino]cyclohexyl}-3H-benzoxazol-2-one], 128 nM. The result for `CN(CCCc1ccc(F)cc1)[C@H]1CC[C@@H](c2ccc3[nH]c(=O)oc3c2)CC1` [Example 19, 6-(cis-4-{[3-(4-Fluorophenyl)propyl]methylamino}cyclohexyl)-3H-benzoxazol-2-one] reads 185 nM.

As to `CN(CCCc1ccc(F)cc1F)[C@H]1CC[C@H](c2ccc3[nH]c(=O)oc3c2)CC1` [Example 24b, 6-(trans-4-{[3-(2,4-Difluorophenyl)propyl]methylamino}cyclohexyl)-3H-benzoxazol-2-one], the IC50 stood at 14 nM. `CCN(CCCc1ccc(C(F)(F)F)cc1)[C@H]1CC[C@H](c2ccc3[nH]c(=O)oc3c2)CC1` [Example 26] gave an IC50 of 188 nM. To `CCN([C@H]1CC[C@H](c2ccc3[nH]c(=O)oc3c2)CC1)[C@H](C)CCc1ccccc1` [Example 27, 6-(trans-4-{Ethyl-[(R)-1-methyl-3-phenylpropyl]amino}cyclohexyl)-3H-benzoxazol-2-one] belongs 132 nM. The result for `CCN([C@H]1CC[C@H](c2ccc3[nH]c(=O)oc3c2)CC1)[C@@H](C)CCc1ccccc1` [Example 28, 6-(trans-4-{Ethyl-[(S)-1-methyl-3-phenylpropyl]amino}cyclohexyl)-3H-benzoxazol-2-one] reads 184 nM; that for `O=c1[nH]c2ccc([C@H]3CC[C@H](N(CCO)CCCc4ccc(F)cc4)CC3)cc2o1` [Example 29, 6-{trans-4-[[3-(4-Fluorophenyl)propyl]-(2-hydroxyethyl)amino]cyclohexyl}-3H-benzoxazol-2-one], 18 nM; that for `O=c1[nH]c2ccc([C@H]3CC[C@H](N(CCCc4ccc(F)cc4)CC4CC4)CC3)cc2o1` [Example 30, 6-(trans-4-{Cyclopropylmethyl-[3-(4-fluorophenyl)propyl]amino}cyclohexyl)-3H-benzoxazol-2-one], 219 nM. The result for `O=c1[nH]c2ccc([C@H]3CC[C@H](N(CCCc4ccc(F)cc4)Cc4ccoc4)CC3)cc2o1` [Example 31, 6-(trans-4-{[3-(4-Fluorophenyl)propyl]furan-3-ylmethylamino}cyclohexyl)-3H-benzoxazol-2-one] reads 465 nM; that for `C=CCN(CCCc1ccc(F)cc1)[C@H]1CC[C@H](c2ccc3[nH]c(=O)oc3c2)CC1` [Example 32, 6-(trans-4-{Allyl-[3-(4-fluorophenyl)propyl]amino}cyclohexyl)-3H-benzoxazol-2-one], 158 nM. For `CC(C)CN(CCCc1ccc(F)cc1)[C@H]1CC[C@H](c2ccc3[nH]c(=O)oc3c2)CC1` [Example 33, 6-(trans-4-{[3-(4-Fluorophenyl)propyl]isobutylamino}cyclohexyl)-3H-benzoxazol-2-one], the IC50 is more than 1000 nM. The result for `NC(=O)CN(CCCc1ccc(F)cc1)[C@H]1CC[C@H](c2ccc3[nH]c(=O)oc3c2)CC1` [Example 34, 2-{[3-(4-Fluorophenyl)propyl]-[4-(2-oxo-2,3-dihydro-benzoxazol-6-yl)-cyclohexyl]amino}acetamide] reads 152 nM; that for `NCCN(CCCc1ccc(F)cc1)[C@H]1CC[C@H](c2ccc3[nH]c(=O)oc3c2)CC1` [Example 35, 6-(trans-4-{(2-Aminoethyl)-[3-(4-fluorophenyl)propyl]amino}cyclohexyl)-3H-benzoxazol-2-one], 170 nM. The result for `CCC[C@@H](CSc1ccc(F)cc1)N(CC)[C@H]1CC[C@H](c2ccc3[nH]c(=O)oc3c2)CC1` [Example 36b, (S)-6-{trans-4-[Ethyl(1-(4-fluorophenylsulfanyl)pentan-2-yl)amino]-cyclohexyl}-3H-benzoxazol-2-one] reads more than 1000 nM. The result for `CN(CCCc1ccc(Cl)cc1)[C@H]1CC[C@H](c2ccc3[nH]c(=O)oc3c2)CC1` [Example 38b, 6-(trans-4-{[3-(4-Chlorophenyl)propyl]methylamino}cyclohexyl)-3H-benzoxazol-2-one] reads 7 nM. With `CN(CCCc1cc(F)cc(F)c1)[C@H]1CC[C@H](c2ccc3[nH]c(=O)oc3c2)CC1` [Example 39b, 6-(trans-{[3-(3,5-Difluorophenyl)propyl]methylamino}cyclohexyl)-3H-benzoxazol-2-one], the IC50 is 37 nM. The result for `CN(CCCc1ccc(F)c(F)c1)[C@H]1CC[C@H](c2ccc3[nH]c(=O)oc3c2)CC1` [Example 40b, 6-(trans-4-{[3-(3,4-Difluorophenyl)propyl]methylamino}cyclohexyl)-3H-benzoxazol-2-one] reads 29 nM. To `Cc1ccc(CCCN(C)[C@H]2CC[C@H](c3ccc4[nH]c(=O)oc4c3)CC2)c(C)c1` [Example 41b] belongs 68 nM; to `CN(CCCc1ccc(F)cc1Cl)[C@H]1CC[C@H](c2ccc3[nH]c(=O)oc3c2)CC1` [Example 44b, 6-(trans-4-{[3-(2-Chloro-4-fluorophenyl)propyl]methylamino}cyclohexyl)-3H-benzoxazol-2-one], 7 nM.

Turning to `CN(CCCc1ccc(Cl)cc1F)[C@H]1CC[C@H](c2ccc3[nH]c(=O)oc3c2)CC1` [Example 45b, 6-(trans-4-{[3-(4-Chloro-2-fluorophenyl)propyl]methylamino}cyclohexyl)-3H-benzoxazol-2-one], the IC50 is 7 nM.

`CN(CCCc1ccccc1F)[C@H]1CC[C@H](c2ccc3[nH]c(=O)oc3c2)CC1` [Example 46b, 6-(trans-4-{[3-(2-Fluorophenyl)propyl]methylamino}cyclohexyl)-3H-benzoxazol-2-one]: the IC50 was 9 nM. The result for `CN(CCCc1cccc(F)c1)[C@H]1CC[C@H](c2ccc3[nH]c(=O)oc3c2)CC1` [Example 47b, 6-(trans-4-{[3-(3-Fluorophenyl)propyl]methylamino}cyclohexyl)-3H-benzoxazol-2-one] reads 15 nM. To `Cc1c(F)cccc1CCCN(C)[C@H]1CC[C@H](c2ccc3[nH]c(=O)oc3c2)CC1` [Example 48b, 6-(trans-4-{[3-(3-Fluoro-2-methylphenyl)propyl]methylamino}cyclohexyl)-3H-benzoxazol-2-one] belongs 20 nM; to `CN(CCCC1CCCCC1)[C@H]1CC[C@H](c2ccc3[nH]c(=O)oc3c2)CC1` [Example 49b, 6-{trans-4-[(3-Cyclohexylpropyl)methylamino]cyclohexyl}-3H-benzoxazol-2-one], 22 nM; to `CC(Cc1ccccc1)CN(C)[C@H]1CC[C@H](c2ccc3[nH]c(=O)oc3c2)CC1` (stereo partly drawn) [Example 50b, 6-(trans-{4-[Methyl(2-methyl-3-phenylpropyl)amino]cyclohexyl})-3H-benzoxazol-2-one], 351 nM. The result for `CN(CC#Cc1ccccc1)[C@H]1CC[C@H](c2ccc3[nH]c(=O)oc3c2)CC1` [Example 51b, 6-(trans-{4-[Methyl(3-phenyl-prop-2-ynyl)amino]cyclohexyl})-3H-benzoxazol-2-one] reads 550 nM.
